Experiment: Solubility of compound (I) in water at predetermined pH
Assay type: physicochemical
Details: water for injection, ice-cold, pH adjusted with HCl/NaOH; solubility increased with decrease in pH
Experimental: Method for Measuring Solubility of Compound (I):
Compound (I) (in an amount so that concentration of compound (I) in the aqueous solution becomes 300 mg/g) is weighed in a beaker. 15 mL of water for injection cooled to 5° C. is added, and the solution is stirred using a stirrer under ice-cold conditions for 30 minutes. While stirring, adjustment to the predetermined pH is conducted by dropwise addition of 1N hydrochloric acid or 1N sodium hydroxide aqueous solution, and the pH is maintained. After stirring is completed, a filtration filter (for example, Ekicrodisc 0.45 μm HT-Tuffryn, Gelman Science Japan, Ltd.) is used for filtration, and the amount of compound (I) in the filtrate is measured by the quantitative HPLC method which is similar to Test Example 1 described later, and thus solubility of compound (I) is obtained.

## C[C@@H](O)[C@H]1C(=O)N2C(C(=O)O)=C(S[C@H]3C[C@@H](C(=O)N4CC[C@H](NC(=O)CNC(=N)N)C4)N(C)C3)[C@H](C)[C@H]12 [Compound (I), (1R,5S,6S)-6-[(1R)-1-hydroxyethyl]-1-methyl-2-[(2S,4S)-2-[(3S)-3-(2-guanidinoacetylamino)pyrrolidin-1-ylcarbonyl]-1-methylpyrrolidin-4-ylthio]-1-carbapen-2-em-3-carboxylic acid]
  Solubility in water: solubility sufficient for the production of the preparation at pH 7 or lower

Source: patent US20100010214A1, “LYOPHILIZED PREPARATION OF 1-METHYLCARBAPENEM” (DAIICHI SANKYO COMPANY, LIMITED, priority 2006, published 2010)
